# Assay results taken from publication PMC7402526, “An in vitro quantitative systems pharmacology approach for deconvolving mechanisms of drug-induced, multilineage cytopenias” (PLoS Computational Biology, 2020).
# Experiments:
# [1] = test system: human bone marrow-derived CD34+ cells differentiated into multiple hematopoietic lineages; assay: MLTA, overall effects across hematopoietic lineages; type: cell-based; settings: QSP model fit; EmaxT > 1.0 = cell-killing
# Description: A custom optimized cytokine cocktail was developed using commercially available cytokines (Peprotech, New Jersey) to facilitate simultaneous multi-lineage differentiation and self-renewal of freeze-thawed primary human bone marrow-derived CD34+ cells in SFEM II media (cells and media from StemCell Technologies, Vancouver). Cultures were carried out in ultra-low attachment 96-well plates (Corning, New York) with test article added on day 0 and cultured at 37°C, 85% relative humidity, and 5% CO2 for six days before interrogating drug impact via 17-parameter flow cytometry.
# The flow cytometry panel used to define hematopoietic subsets was composed of CD34-PECy7, CD90-PECY5, CD38-AF488, CD371-PE, CD45Ra-BV421, CD14-BV605, CD42b-AF647, CD10-PEDazzle594, CD235a-PerCPCy5.5 (BioLegend, California), CD15-BUV395, CD41a-APCH7, CD71-BV786 (BD Biosciences, California), and DAPI for dead cell exclusion (ThermoFisher, California). In short, Day 6 cells were harvested, FcR-blocked (FcR binding inhibitor, ThermoFisher), surface-stained, then analyzed in a buffer containing TruCount Control Beads using a BD LSR Fortessa SORP fitted with a high-throughput sampler (BD Biosciences, California). Data was analyzed in Diva 6.0.2 and exported to CSV where after all cell data was transformed to cell per mL then normalized on a per-donor basis to untreated control wells to determine drug impact.
# Donor material was collected and cultured as described above. The number of replicate donor samples per drug ranged from 2–7 and varied per drug (S1 Table). Drug treatment was added at time 0 and cells were maintained in culture for 6 days. Concentrations tested for each drug compound are contained in S1 Table. Concentrations were selected to span a range that is clinically useful. Following treatment, cell populations were measured using flow cytometry. We extracted cell counts from flow cytometry data, normalized to bead counts, and corrected for well volume.
# Each well was normalized to the average of six vehicle control wells. For drugs that were tested across multiple runs of the assay, vehicle-normalized donor data were pooled, and we used the average of these pooled data for further modeling. Normalized data used as model inputs are included in S1 Table.
# We implemented drug effects using an Emax model for the drug’s effect on each cell type. The 13 maximum effect parameters (EmaxT,C) are unitless and can vary between 0 and 2 and where a subscript, C, represents one of the previously described 13 cell types. We adapted a traditional Emax model using the equations below. We interpreted EmaxT values less than or equal to one as anti-proliferative, and EmaxT values greater than one as indicating a cell-killing mechanism in addition to anti-proliferation. The relationships for these effects are included in the model using the following equations. Eq 2 describes the drug anti-proliferative effect in the net proliferation rate for a given cell type. Eq 3 describes the cell-killing EmaxCK effect.
# [2] = test system: late erythroid cells (Eryth II); assay: MLTA, ErythII: concentration-response and QSP model fit; type: cell-based, human; settings: Homo sapiens, 144 h
# Method in brief: (§1)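 Freeze-thawed primary human bone marrow CD34+ cells were grown in SFEM II with a multi-lineage cytokine cocktail, drug added day 0, six days at 37°C. Lineage counts came from 17-parameter flow with TruCount beads, vehicle-normalized per donor, then fitted by an Emax-based QSP model.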
# [3] = test system: monocyte progenitors (monocyte prog); assay: MLTA, MonoP: concentration-response and QSP model fit; type: cell-based, human
# Method in brief: (§2)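 Freeze-thawed primary human bone marrow CD34+ cells were cultured 6 days in SFEM II with a cytokine cocktail, drug added on day 0. Subsets were counted by 17-parameter flow cytometry with TruCount beads and normalized to vehicle wells. An Emax QSP model (Emax 0–2, L1 regularization) was fitted to these counts.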
# [4] = test system: neutrophils (neutrophil-lin); assay: MLTA, Neut: concentration-response and QSP model fit; type: cell-based, human; settings: Homo sapiens, Neutrophil, 144 h
# Method in brief: as §1
# [5] = test system: total viable cells (totalViableCells); assay: MLTA, total live cells concentration-response; type: cell-based; settings: Homo sapiens, 144 h, 6 days, normalized to vehicle control, read-out: total_live normalized cell count
# Method in brief: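 Freeze-thawed primary human bone marrow CD34+ cells in SFEM II with cytokine cocktail, drug added day 0, 6 days at 37°C, 5% CO2. Live/dead counts by 17-parameter flow cytometry with DAPI exclusion, bead-normalized, volume-corrected to cells/mL. Normalized per donor to mean of six vehicle wells; 2–7 donors pooled.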
# [6] = test system: multi-potent progenitors (MPPs); assay: MLTA, MPPs: concentration-response and QSP model fit; type: cell-based, human
# Method in brief: as §1
# [7] = test system: granulocyte progenitor (Gran-lin prog); assay: MLTA, GranP: concentration-response and QSP model fit; type: cell-based, human; settings: Homo sapiens, 144 h
# Method in brief: as §2
# [8] = test system: early erythroid cells (Eryth I); assay: MLTA, ErythI: concentration-response and QSP model fit; type: cell-based, human
# Method in brief: as §2
# [9] = cell-killing component, max(0, EmaxT-1)
compound,measurement,setting,value
CC(=O)O[C@@]12CO[C@@H]1C[C@H](O)[C@@]1(C)C(=O)[C@H](O)C3=C(C)[C@@H](OC(=O)[C@H](O)[C@@H](NC(=O)OC(C)(C)C)c4ccccc4)C[C@@](O)([C@@H](OC(=O)c4ccccc4)[C@H]21)C3(C)C [docetaxel],EmaxT effects across cell types (overall statement),[1],> 1.0
same,EC50,"[2]; QSP model fit of 6-day MLTA data, read-out: EC50ErythII",6.3 nM
same,activity at 0.0002 µM,"[2]; dose 0.2 nM, 6 days, normalized to vehicle control, read-out: ErythII normalized cell count",91.6%
same,activity at 0.001 µM,"[2]; dose 1 nM, 6 days, normalized to vehicle control, read-out: ErythII normalized cell count",105%
same,activity at 0.005 µM,"[2]; dose 5 nM, 6 days, normalized to vehicle control, read-out: ErythII normalized cell count",0.449%
same,activity at 0.025 µM,"[2]; dose 25 nM, 6 days, normalized to vehicle control, read-out: ErythII normalized cell count",0.0341%
same,activity at 0.1 µM,"[2]; dose 100 nM, 6 days, normalized to vehicle control, read-out: ErythII normalized cell count",0.0344%
same,activity at 0.5 µM,"[2]; dose 500 nM, 6 days, normalized to vehicle control, read-out: ErythII normalized cell count",0.0336%
same,activity at 2.5 µM,"[2]; dose 2500 nM, 6 days, normalized to vehicle control, read-out: ErythII normalized cell count",0.0256%
same,Emax,"[2]; parameter from QSP model fitting, read-out: Emax_drug_ErythroidII",1.59%
same,EC50,"[3]; Homo sapiens, Monocyte, 144 h, QSP model fit of 6-day MLTA data, read-out: EC50MonoP",7.88 nM
same,activity at 0.0002 µM,"[3]; Homo sapiens, Monocyte, 144 h, dose 0.2 nM, 6 days, normalized to vehicle control, read-out: MonoPs normalized cell count",110%
same,activity at 0.001 µM,"[3]; Homo sapiens, Monocyte, 144 h, dose 1 nM, 6 days, normalized to vehicle control, read-out: MonoPs normalized cell count",107%
same,activity at 0.005 µM,"[3]; Homo sapiens, Monocyte, 144 h, dose 5 nM, 6 days, normalized to vehicle control, read-out: MonoPs normalized cell count",7.72%
same,activity at 0.025 µM,"[3]; Homo sapiens, Monocyte, 144 h, dose 25 nM, 6 days, normalized to vehicle control, read-out: MonoPs normalized cell count",0.204%
same,activity at 0.1 µM,"[3]; Homo sapiens, Monocyte, 144 h, dose 100 nM, 6 days, normalized to vehicle control, read-out: MonoPs normalized cell count",0.162%
same,activity at 0.5 µM,"[3]; Homo sapiens, Monocyte, 144 h, dose 500 nM, 6 days, normalized to vehicle control, read-out: MonoPs normalized cell count",0.302%
same,activity at 2.5 µM,"[3]; Homo sapiens, Monocyte, 144 h, dose 2500 nM, 6 days, normalized to vehicle control, read-out: MonoPs normalized cell count",0.319%
same,Emax,"[3]; Homo sapiens, Monocyte, 144 h, parameter from QSP model fitting, read-out: Emax_drug_MonoP",146%
same,"EmaxCK,MonoP",[3]; [9],0.459 day⁻¹
same,EC50,[4]; QSP model fit of 6-day MLTA data,13.7 nM
same,activity at 0.0002 µM,"[4]; dose 0.2 nM, 6 days, normalized to vehicle control, read-out: Neut normalized cell count",90.8%
same,activity at 0.001 µM,"[4]; dose 1 nM, 6 days, normalized to vehicle control, read-out: Neut normalized cell count",99.6%
same,activity at 0.005 µM,"[4]; dose 5 nM, 6 days, normalized to vehicle control, read-out: Neut normalized cell count",0.23%
same,activity at 0.025 µM,"[4]; dose 25 nM, 6 days, normalized to vehicle control, read-out: Neut normalized cell count",0.177%
same,activity at 0.1 µM,"[4]; dose 100 nM, 6 days, normalized to vehicle control, read-out: Neut normalized cell count",0.139%
same,activity at 0.5 µM,"[4]; dose 500 nM, 6 days, normalized to vehicle control, read-out: Neut normalized cell count",0.0727%
same,activity at 2.5 µM,"[4]; dose 2500 nM, 6 days, normalized to vehicle control, read-out: Neut normalized cell count",0%
same,Emax,"[4]; parameter from QSP model fitting, read-out: Emax_drug_Neut",23.2%
same,viability at 0.0002 µM,[5]; dose 0.2 nM,100%
same,viability at 0.001 µM,[5]; dose 1 nM,108%
same,viability at 0.005 µM,[5]; dose 5 nM,4.66%
same,viability at 0.025 µM,[5]; dose 25 nM,0.311%
same,viability at 0.1 µM,[5]; dose 100 nM,0.197%
same,viability at 0.5 µM,[5]; dose 500 nM,0.378%
same,viability at 2.5 µM,[5]; dose 2500 nM,0.283%
same,EC50,"[6]; Homo sapiens, 144 h, QSP model fit of 6-day MLTA data",4.71 nM
same,activity at 0.0002 µM,"[6]; Homo sapiens, 144 h, dose 0.2 nM, 6 days, normalized to vehicle control, read-out: MPPs normalized cell count",91%
same,activity at 0.001 µM,"[6]; Homo sapiens, 144 h, dose 1 nM, 6 days, normalized to vehicle control, read-out: MPPs normalized cell count",107%
same,activity at 0.005 µM,"[6]; Homo sapiens, 144 h, dose 5 nM, 6 days, normalized to vehicle control, read-out: MPPs normalized cell count",63.9%
same,activity at 0.025 µM,"[6]; Homo sapiens, 144 h, dose 25 nM, 6 days, normalized to vehicle control, read-out: MPPs normalized cell count",2.42%
same,activity at 0.1 µM,"[6]; Homo sapiens, 144 h, dose 100 nM, 6 days, normalized to vehicle control, read-out: MPPs normalized cell count",0.694%
same,activity at 0.5 µM,"[6]; Homo sapiens, 144 h, dose 500 nM, 6 days, normalized to vehicle control, read-out: MPPs normalized cell count",2.03%
same,activity at 2.5 µM,"[6]; Homo sapiens, 144 h, dose 2500 nM, 6 days, normalized to vehicle control, read-out: MPPs normalized cell count",0.798%
same,Emax,"[6]; Homo sapiens, 144 h, parameter from QSP model fitting, read-out: Emax_drug_MPP",201%
same,"EmaxCK,MPP",[6]; [9],1.014 day⁻¹
same,activity at 0.0002 µM,"[7]; dose 0.2 nM, 6 days, normalized to vehicle control, read-out: GranPs normalized cell count",110%
same,activity at 0.001 µM,"[7]; dose 1 nM, 6 days, normalized to vehicle control, read-out: GranPs normalized cell count",110%
same,activity at 0.005 µM,"[7]; dose 5 nM, 6 days, normalized to vehicle control, read-out: GranPs normalized cell count",4.64%
same,activity at 0.025 µM,"[7]; dose 25 nM, 6 days, normalized to vehicle control, read-out: GranPs normalized cell count",0%
same,activity at 0.1 µM,"[7]; dose 100 nM, 6 days, normalized to vehicle control, read-out: GranPs normalized cell count",0.0204%
same,activity at 0.5 µM,"[7]; dose 500 nM, 6 days, normalized to vehicle control, read-out: GranPs normalized cell count",0.0147%
same,activity at 2.5 µM,"[7]; dose 2500 nM, 6 days, normalized to vehicle control, read-out: GranPs normalized cell count",0.0152%
same,Emax,"[7]; parameter from QSP model fitting, read-out: Emax_drug_GranP",0.04%
same,EC50,"[8]; Homo sapiens, 144 h, QSP model fit of 6-day MLTA data, read-out: EC50ErythI",8.14 nM
same,activity at 0.0002 µM,"[8]; Homo sapiens, 144 h, dose 0.2 nM, 6 days, normalized to vehicle control, read-out: ErythI normalized cell count",112%
same,activity at 0.001 µM,"[8]; Homo sapiens, 144 h, dose 1 nM, 6 days, normalized to vehicle control, read-out: ErythI normalized cell count",110%
same,activity at 0.005 µM,"[8]; Homo sapiens, 144 h, dose 5 nM, 6 days, normalized to vehicle control, read-out: ErythI normalized cell count",5.32%
same,activity at 0.025 µM,"[8]; Homo sapiens, 144 h, dose 25 nM, 6 days, normalized to vehicle control, read-out: ErythI normalized cell count",0.559%
same,activity at 0.1 µM,"[8]; Homo sapiens, 144 h, dose 100 nM, 6 days, normalized to vehicle control, read-out: ErythI normalized cell count",0.401%
same,activity at 0.5 µM,"[8]; Homo sapiens, 144 h, dose 500 nM, 6 days, normalized to vehicle control, read-out: ErythI normalized cell count",0.687%
same,activity at 2.5 µM,"[8]; Homo sapiens, 144 h, dose 2500 nM, 6 days, normalized to vehicle control, read-out: ErythI normalized cell count",0.409%
same,Emax,"[8]; Homo sapiens, 144 h, parameter from QSP model fitting, read-out: Emax_drug_ErythroidI",173%
same,"EmaxCK,ErythI",[8]; [9],0.726 day⁻¹
